By IC50 is commonly meant the concentration that inhibits the measured activity by half. Low readings indicate inhibition by little substance, high ones a need for much substance.

In the experiment the target is Indoleamine 2,3-dioxygenase 1 (Homo sapiens, UniProt P14902). As to the kind of experiment: Inhibition of 2,3 dioxygenase.
Chain of Indoleamine 2,3-dioxygenase 1 (P14902 whole entry): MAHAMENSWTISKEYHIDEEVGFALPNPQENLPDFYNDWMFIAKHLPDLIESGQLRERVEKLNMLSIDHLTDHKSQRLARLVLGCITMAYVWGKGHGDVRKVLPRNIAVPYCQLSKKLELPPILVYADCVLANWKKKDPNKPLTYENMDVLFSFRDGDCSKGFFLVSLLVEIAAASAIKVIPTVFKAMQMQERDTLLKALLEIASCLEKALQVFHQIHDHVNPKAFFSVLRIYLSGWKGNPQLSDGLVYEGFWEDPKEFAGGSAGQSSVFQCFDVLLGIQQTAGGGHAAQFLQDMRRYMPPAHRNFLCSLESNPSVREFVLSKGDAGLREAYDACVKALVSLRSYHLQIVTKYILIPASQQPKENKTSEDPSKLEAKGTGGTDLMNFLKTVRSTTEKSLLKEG
In the case of `CC1(C)OC2=C(C(=O)c3ccccc3C2=O)C2OC21` (centres undefined), the IC50 was 4950 nM.

The compound `CC1=C(SCC(NC(=O)CCC(N)C(=O)O)C(=O)NCC(=O)O)C(=O)c2c(O)cccc2C1=O` (centres undefined) returned an IC50 of 880 nM. Then `CCCCNC1C2=C(OC(C)(C)C1O)C(=O)c1ccccc1C2=O` (centres undefined), with 130 nM; and `CC1(C)C=CC2=C(O1)C(=O)c1cc(O)ccc1C2=O`, with 2000 nM.

The values are drawn from ChEMBL document CHEMBL1240438, “Identification of potent virtual leads to design novel indoleamine 2,3-dioxygenase inhibitors: pharmacophore modeling and molecular docking studies” (Eur J Med Chem, 2010).
